Series [1] deals with multidrug-resistant P. aeruginosa clinical isolates from Walter Reed Army Hospital. Briefly: Levofloxacin MIC potentiation, WRAIR MRSN isolates. It counts as cell-based, Pseudomonas aeruginosa. Particulars: Pseudomonas aeruginosa. On the procedure:
(§1) MIC assays for potentiation of antimicrobial activity against P. aeruginosa were performed as described previously.

In the next series the test system is P. aeruginosa ATCC 27853. Briefly: Neutropenic murine lung infection model. It is filed as in vivo, CD-1 mice. The following applies: alone or with TXA11114 30 mg/kg IV QID; for Mean Log10 CFU (lung): +24 hr. As to the method: For the lung infection model, mice were anesthetized by IP injection of 0.15 mL of a ketamine (40 mg/kg) + xylazine (6 mg/kg) mixture and inoculated intranasally (IN) with 0.05 mL of a 4 × 10^8 CFU/mL bacterial suspension applied dropwise to the external nares. Two hours post-infection, mice received test articles IV (EPIs) or SC (levofloxacin). At 2 h or 24 h post-infection, mice were euthanized by CO2 asphyxiation, and lungs were aseptically removed, placed in 2 mL sterile PBS, and homogenized using the same procedure described above. Homogenates were serially diluted and plated (8 µL spots) onto BHI-charcoal and citrate agar, incubated overnight at 37 °C, and colonies were counted the following day.

The subject of another series is P. aeruginosa. Briefly: Effect of inoculum on levofloxacin potentiation (MIC). Particulars: TXA11114 0 μg/mL. It counts as cell-based, Pseudomonas aeruginosa. As to the method:
as §1

The next series has as its target T1, CYP1A2 (Homo sapiens, UniProt P05177).
T1 construct: from tissue; host or cells: human liver microsomes
As to the kind of experiment: Cytochrome P450 inhibition. Particulars: probe phenacetin; human liver microsomes; read-out: CYP Inhibition IC50, 1A2. It is filed as in vitro ADME. On the procedure:
(§2) Inhibition of CYP1A2, CYP2D6, CYP2C9, CYP2C19, and CYP3A4 by TXA11114 was assessed in human liver microsomes by measuring the inhibition of probe substrate metabolism. Phenacetin, bufuralol, diclofenac, S-mephenytoin, and midazolam were used as probe substrates for CYP1A2, CYP2D6, CYP2C9, CYP2C19, and CYP3A4, respectively. Corresponding metabolites (acetaminophen, OH-bufuralol, 4-OH diclofenac, 4-OH mephenytoin, and 1-OH midazolam) were quantified by LC-MS/MS. Selective inhibitors (fluvoxamine (CYP1A2), quinidine (CYP2D6), sulfaphenazole (CYP2C9), ticlopidine (CYP2C19), and ketoconazole (CYP3A4)) were used as positive controls. Test and control compounds, prepared in DMSO at various concentrations, were spiked into 2× microsomal reaction mixtures, and 50 µL aliquots were transferred to individual wells. Probe substrates (25 µL, 4× concentration) were added to the respective wells and pre-incubated for 5 min at 37 °C. Reactions were initiated by the addition of 25 µL NADPH (4×) and incubated for 5 min (CYP3A4), 10 min (CYP1A2, CYP2D6, CYP2C9), or 20 min (CYP2C19). Reactions were quenched with 100 µL ice-cold acetonitrile containing glipizide as an internal standard. Plates were centrifuged at 4000 rpm for 15 min, and 100 µL supernatants were analyzed by LC-MS/MS in MRM mode. […] Percent inhibition was calculated as 100 − percent activity. IC50 values were determined using GraphPad Prism (version 5.02).

Another series addresses T2, CYP2C9 (Homo sapiens, UniProt P11712).
T2 construct: from tissue; host or cells: human liver microsomes
Briefly: Cytochrome P450 inhibition. It counts as in vitro ADME. Particulars: probe diclofenac; human liver microsomes; read-out: CYP Inhibition IC50, 2C9. On the procedure: as §2

The next series addresses T3, CYP2C19 (Homo sapiens, UniProt P33261).
T3 construct: from tissue; host or cells: human liver microsomes
As to the kind of experiment: Cytochrome P450 inhibition. It is filed as in vitro ADME. Particulars: probe S-mephenytoin; human liver microsomes; read-out: CYP Inhibition IC50, 2C19. On the procedure:
as §2

Where two headings read alike, the source gives them in different places. Bounds are passed on as bounds.

T1 sequence (P05177 whole entry): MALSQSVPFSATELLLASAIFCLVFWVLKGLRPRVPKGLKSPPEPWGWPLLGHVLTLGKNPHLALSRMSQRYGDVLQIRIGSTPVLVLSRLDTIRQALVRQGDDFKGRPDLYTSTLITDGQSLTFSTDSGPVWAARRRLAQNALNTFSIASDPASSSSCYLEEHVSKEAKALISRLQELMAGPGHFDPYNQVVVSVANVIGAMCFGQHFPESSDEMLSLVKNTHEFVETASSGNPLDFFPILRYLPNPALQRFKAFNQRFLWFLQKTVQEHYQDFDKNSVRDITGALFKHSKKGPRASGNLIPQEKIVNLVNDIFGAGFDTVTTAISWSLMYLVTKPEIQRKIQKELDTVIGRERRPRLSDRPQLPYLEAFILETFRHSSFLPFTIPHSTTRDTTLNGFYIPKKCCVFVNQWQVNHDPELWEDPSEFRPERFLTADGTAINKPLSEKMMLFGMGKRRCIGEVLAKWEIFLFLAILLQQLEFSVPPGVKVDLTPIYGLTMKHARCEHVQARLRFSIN
T2 sequence (P11712 whole entry): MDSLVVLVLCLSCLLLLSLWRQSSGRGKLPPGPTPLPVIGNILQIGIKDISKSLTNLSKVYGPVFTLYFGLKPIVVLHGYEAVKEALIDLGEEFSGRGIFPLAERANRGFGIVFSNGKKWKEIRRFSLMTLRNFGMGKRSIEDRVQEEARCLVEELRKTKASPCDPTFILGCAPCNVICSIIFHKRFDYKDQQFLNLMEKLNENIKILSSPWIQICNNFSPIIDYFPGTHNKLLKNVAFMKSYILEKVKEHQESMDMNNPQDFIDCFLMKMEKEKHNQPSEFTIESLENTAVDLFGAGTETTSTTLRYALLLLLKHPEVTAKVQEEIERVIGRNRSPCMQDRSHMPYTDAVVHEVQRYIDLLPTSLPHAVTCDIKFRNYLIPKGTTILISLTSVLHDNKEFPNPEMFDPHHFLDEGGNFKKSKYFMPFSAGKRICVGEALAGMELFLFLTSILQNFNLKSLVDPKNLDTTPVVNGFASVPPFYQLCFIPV
T3 sequence (P33261 whole entry): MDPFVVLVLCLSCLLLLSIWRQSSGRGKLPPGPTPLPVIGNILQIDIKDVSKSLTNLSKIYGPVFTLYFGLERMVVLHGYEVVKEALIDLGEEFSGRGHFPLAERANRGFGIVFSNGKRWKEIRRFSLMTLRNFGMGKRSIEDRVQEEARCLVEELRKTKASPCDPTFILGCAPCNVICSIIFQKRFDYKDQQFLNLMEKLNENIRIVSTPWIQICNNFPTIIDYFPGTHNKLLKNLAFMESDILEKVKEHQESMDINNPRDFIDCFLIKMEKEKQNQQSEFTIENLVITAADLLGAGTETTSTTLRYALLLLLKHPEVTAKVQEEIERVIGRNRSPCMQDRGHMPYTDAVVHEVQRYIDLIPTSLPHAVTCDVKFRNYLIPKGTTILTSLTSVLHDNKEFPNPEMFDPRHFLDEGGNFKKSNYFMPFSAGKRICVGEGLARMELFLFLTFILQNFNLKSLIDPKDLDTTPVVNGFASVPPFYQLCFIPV

Take `C[C@H]1COc2c(N3CCN(C)CC3)c(F)cc3c(=O)c(C(=O)O)cn1c23` [Levofloxacin, levofloxacin]: the MIC in series [1] (read-out: Levofloxacin MIC alone across panel, 20 MRSN isolates) was at least 8 µg/mL; in series [1] (read-out: Levofloxacin MIC, No EPI, MRSN #994), 16 µg/mL; in series [1] (read-out: Levofloxacin MIC, No EPI, MRSN #1344) it was 8 µg/mL; in series [1] (read-out: Levofloxacin MIC, No EPI, MRSN #3587), 8 µg/mL; in series [1] (read-out: Levofloxacin MIC, No EPI, MRSN #3705), 8 µg/mL; in series [1] (read-out: Levofloxacin MIC, No EPI, MRSN #5498), 32 µg/mL. In addition, the MIC turned out to be 64 µg/mL in series [1] (read-out: Levofloxacin MIC, No EPI, MRSN #5519); 16 µg/mL in series [1] (read-out: Levofloxacin MIC, No EPI, MRSN #5539); 128 µg/mL in series [1] (read-out: Levofloxacin MIC, No EPI, MRSN #6220); 8 µg/mL in series [1] (read-out: Levofloxacin MIC, No EPI, MRSN #6241); 32 µg/mL in series [1] (read-out: Levofloxacin MIC, No EPI, MRSN #6678); 8 µg/mL in series [1] (read-out: Levofloxacin MIC, No EPI, MRSN # 6695). In addition, the MIC amounted to 16 µg/mL in series [1] (read-out: Levofloxacin MIC, No EPI, MRSN #8130); 8 µg/mL in series [1] (read-out: Levofloxacin MIC, No EPI, MRSN #8139); 16 µg/mL in series [1] (read-out: Levofloxacin MIC, No EPI, MRSN #8912); 16 µg/mL in series [1] (read-out: Levofloxacin MIC, No EPI, MRSN #8914); 128 µg/mL in series [1] (read-out: Levofloxacin MIC, No EPI, MRSN #8915); 16 µg/mL in series [1] (read-out: Levofloxacin MIC, No EPI, MRSN #14981). The MIC in series [1] (read-out: Levofloxacin MIC, No EPI, MRSN #15566) stood at 8 µg/mL; in series [1] (read-out: Levofloxacin MIC, No EPI, MRSN #16344) it was 8 µg/mL; in series [1] (read-out: Levofloxacin MIC, No EPI, MRSN #369569), 32 µg/mL. Moreover, the “Mean Log10 CFU (lung)” value in the series on P. aeruginosa ATCC 27853 (levofloxacin 15 mg/kg SC QID) is 5.86 log10 CFU; with P. aeruginosa ATCC 27853 (levofloxacin 30 mg/kg SC QID) it was 3.98 log10 CFU. Besides, the “Mean Log10 CFU Change vs +2 hr Control, Δlog10 (treatment-baseline), lung” value in the series with P. aeruginosa ATCC 27853 (levofloxacin 15 mg/kg SC QID) was 1.27 log10 CFU. The “Mean Log10 CFU Change vs +24 hr Control, lung” value in the series with P. aeruginosa ATCC 27853 (levofloxacin 15 mg/kg SC QID) was 3.03 log10 CFU. The “Reduction of lung CFU at 24 h post-infection” value in the series with P. aeruginosa ATCC 27853 (levofloxacin 30 mg/kg SC QID) is reported as 0.61 log10 CFU. Further, the “LVX MIC” value with P. aeruginosa (OD600 0.001) worked out at 1 µg/mL; in the series on P. aeruginosa (OD600 0.025), 2 µg/mL.
`NC[C@@H]1CN[C@H](CNC(=O)c2cc3ccc(-c4ccc(F)cc4)cc3[nH]2)C1` [TXA09155]: the IC50 at 10 min on CYP1A2 and on CYP2C9 was over 100 µM each time. The IC50 at 20 min on CYP2C19 was over 100 µM.

For the origin of these results see paper PMC13114161 (Antibiotics, 2026).
